Our source for the TGI values is PubChem BioAssay (NCI).

Test in all cases: inhibition of tumour cell growth, NCI panel, 48 h
The subject of assay [1] is TK-10 renal.
In assay [2] the test system is SR leukemia.
Assay [3] concerns ACHN renal.
The subject of assay [4] is 786-0 renal.
In assay [5] the test system is MALME-3M melanoma.
Assay [6] has as its system CAKI-1 renal.
The subject of assay [7] is HCT-15 colon.
Assay [8] concerns SW-620 colon.
The test system of assay [9] is LOX IMVI melanoma.
Assay [10] relates to NCI-H522 lung.

SMILES strings stand for the structures.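 Where inhibition never reached the appropriate level, the endpoint shown equals the highest concentration tested. Otherwise, values were interpolated linearly from a five-concentration, 48-hour dose response in 96-well plates. At the TGI there is no net growth.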 Bounds are passed on as bounds.

Consider `O=C1OC(C(O)C(O)C(O)CO)C(O)C1O` (stereo not given), for which the TGI in assay [1], in [2], in assay [3], in assay [4], in assay [5] and in assay [6] was over 100 µM throughout. Further, the TGI in assay [7], in assay [8], in assay [9] and in assay [10] was over 100 µM throughout.

As for `CC(C)(C)OC(=O)NCCNC(=O)CN(CC(=O)O)C1CCCCC1N(CC(=O)O)CC(=O)O` (stereo not given), the TGI in assay [1], in assay [2], in assay [3], in assay [4], in [5] and in [6] was over 100 µM throughout. For the same compound, the TGI in [7], in assay [8], in [9] and in assay [10] was over 100 µM in each case.

As for `O=C1C=C(NCCc2cc(Br)c(O)c(Br)c2)C(=O)c2[nH]cnc21`, the TGI in assay [1] is over 100 µM; in assay [2], over 100 µM; in assay [3] it was over 100 µM; in assay [4], over 100 µM; in [5], 30 µM; in assay [6] it was over 100 µM. Besides, the TGI in assay [7] was over 100 µM; in assay [8], over 100 µM; in assay [9], over 100 µM; in [10], 87.4 µM.

As for `CCOC(=O)c1ccc(NC(NC(=O)CC)(C(F)(F)F)C(F)(F)F)cc1`, the TGI in assay [1], in [2], in assay [3], in [4], in assay [5] and in assay [6] was over 100 µM in each case. For the same compound, the TGI in [7], in assay [8], in assay [9] and in assay [10] was over 100 µM in each case.

For the compound `CC(C)C(/C=C/c1ccccc1)=N\NC(=S)NN`, the TGI in [1], in assay [2], in [3], in assay [4], in assay [5] and in assay [6] was over 100 µM each time. Besides, the TGI in assay [7] is over 100 µM; in assay [8], over 100 µM; in [9], over 100 µM; in [10], over 89.3 µM.

`Cc1ccc(Nc2nc(NS(=O)(=O)c3cc(C)c(Cl)cc3S)n[nH]2)cc1`: the TGI in assay [1], in assay [2], in [3], in assay [4], in [5] and in assay [6] was over 100 µM each time. Besides, the TGI in assay [7], in assay [8], in assay [9] and in assay [10] was over 100 µM in each case.

On to `Cc1ccnc2sc3ccccc3c(=O)c12`, for which the TGI was 90.6 µM in assay [1]; over 100 µM in [2]; over 100 µM in assay [3]; over 100 µM in [4]; over 100 µM in assay [5]; 61.5 µM in assay [6]. Further, the TGI in [7] is over 100 µM; in assay [8], over 100 µM; in assay [9], over 100 µM; in [10] it was 99.2 µM.

For `OCCNc1nc2c(N3CCCC3)nc(N3CCNCC3)nc2nc1NCc1ccccc1`, the TGI in assay [1] was found to be 28.7 µM; in assay [2], 32.7 µM; in assay [3], 28.9 µM; in [4] it was 28 µM; in [5], 35.9 µM; in assay [6], 31.4 µM. The TGI in assay [7] is 32.2 µM; in assay [8] it was 42.4 µM; in assay [9] it was 29.1 µM; in assay [10] it was 30.7 µM.

With `CN1N(c2ccccc2)C(=O)C2=NC=C(C#N)C(=N)C21C` (stereo not given), the TGI in assay [1], in assay [2], in assay [3], in assay [4], in assay [5] and in assay [6] was over 100 µM throughout. For the same compound, the TGI in [7], in assay [8], in assay [9] and in assay [10] was over 100 µM each time.

Take `Cc1cnc2[nH]c(-c3cccc(Cl)c3)cc(=O)c2c1`: the TGI in assay [1] is over 100 µM; in [2], over 100 µM; in assay [3], over 100 µM; in [4], over 100 µM; in [5], over 100 µM; in assay [6] it was 59.7 µM. In addition, the TGI was over 100 µM in [7], over 100 µM in [8], 11.6 µM in assay [9] and 15 µM in [10].

`Clc1ccc(-c2nn3c(C45CC6CC(CC(C6)C4)C5)nnc3s2)cc1`: the TGI in assay [1], in assay [2], in assay [3], in assay [4], in assay [5] and in assay [6] was over 100 µM in each case. Further, the TGI in assay [7], in [8], in assay [9] and in [10] was over 100 µM throughout.

On to `CC(=O)C(C(=O)C(C)(C)C)C(=O)C(C)(C)C`, for which the TGI in assay [1], in assay [2], in assay [3], in [4], in assay [5] and in [6] was over 100 µM each time. Besides, the TGI in [7], in [8], in [9] and in [10] was over 100 µM each time.

As to `Cc1ccc(C2(c3ccc(C)c(O)c3C)CCN(C)CC2)c(C)c1O`, the TGI in assay [1] was 74.4 µM; in assay [2], over 100 µM; in assay [3], over 100 µM; in [4] it was over 100 µM; in [5], over 100 µM; in [6], over 100 µM. Besides, the TGI in assay [7], in assay [8], in assay [9] and in [10] was over 100 µM throughout.

With `CN(C)/C=N/S(=O)(=O)c1nn2c(C=O)c(-c3cc4ccccc4oc3=O)nc2s1`, the TGI in assay [1] came to 14.8 µM; in assay [2], 36.5 µM; in assay [3], 5.9 µM; in assay [4], 5.24 µM; in assay [5] it was 6.07 µM; in assay [6] it was 4.95 µM. The TGI in assay [7] was 27.6 µM; in assay [8], over 29.4 µM; in [9], 15.4 µM; in assay [10], 3.09 µM.

For the compound `Cc1ccc(CC(=O)Nc2ccc(NC(=O)CNC(=O)/C=C/c3ccc(-c4ccccc4)cc3)cc2C(=O)c2ccccc2)cc1`, the TGI in assay [1] turned out to be 5.95 µM; in assay [2] it was 4.95 µM; in assay [3], 16.2 µM; in [4], 5.48 µM; in assay [5], 12.3 µM; in [6], 20.4 µM. In addition, the TGI in assay [7] was 13.2 µM; in assay [8] it was 19.5 µM; in assay [9], 13.4 µM; in assay [10] it was 18.4 µM.

In the case of `COc1c(Cl)c(Cl)c(OC)c2c1C(=O)C=CC2=O`, the TGI in [1] was 41.9 µM; in assay [2], 42.9 µM; in assay [3], 29.2 µM; in assay [4] it was 31.3 µM; in assay [5], 29.5 µM; in assay [6] it was 59.1 µM. For the same compound, the TGI in [7] was over 100 µM; in assay [8], 31.2 µM; in [9] it was 30.2 µM; in assay [10], 31.7 µM.

`COc1cc(C2c3cc4c(cc3OC(N3CCOCC3)C2C)OCO4)cc(OC)c1OC(C)=O` (stereo not given): the TGI in assay [1] is over 100 µM; in [2], over 72 µM; in assay [3], over 100 µM; in [4], over 100 µM; in assay [5], over 85.7 µM; in assay [6], over 100 µM. Moreover, the TGI is over 100 µM in [7], over 100 µM in [8], over 100 µM in assay [9] and 33.2 µM in [10].

Take `c1csc(-c2nnc(C34CC5CC(CC(C5)C3)C4)o2)c1`: the TGI is over 100 µM in [1]; 66.6 µM in [2]; over 100 µM in [3]; 60.2 µM in [4]; 39.4 µM in assay [5]; over 100 µM in assay [6]. Moreover, the TGI is over 100 µM in assay [7], over 100 µM in [8], 47.1 µM in assay [9] and over 100 µM in assay [10].

For `O=c1c(S(=O)(=O)Oc2ccccc2)coc2cc(F)ccc12`, the TGI in assay [1], in assay [2], in assay [3], in assay [4], in [5] and in assay [6] was over 100 µM in each case. Besides, the TGI in assay [7], in assay [8], in assay [9] and in assay [10] was over 100 µM each time.

With `O=C(O)C(CO)NC(=O)C1C(C(=O)O)C(c2ccccc2[N+](=O)[O-])C=C(c2ccco2)N1c1ccncc1` (stereo not given), the TGI was 9.48 µM in assay [1]; over 100 µM in assay [2]; 3.67 µM in [3]; 6.01 µM in assay [4]; 29.1 µM in assay [5]; 24.3 µM in assay [6]. Moreover, the TGI in assay [7] was determined as 4.39 µM; in [8], 3.79 µM; in assay [9], 3.42 µM; in assay [10], 19 µM.

Regarding `CCOC(=O)CN(Cc1ccccc1)Cc1c(C(=O)c2ccccc2)c2ccccc2n1C(=O)c1ccccc1`, the TGI in assay [1], in assay [2], in assay [3], in assay [4], in assay [5] and in assay [6] was over 100 µM throughout. The TGI in assay [7], in assay [8], in assay [9] and in assay [10] was over 100 µM each time.

As to `COc1cc(C(CC(OC)OC)=C(C#N)C#N)cc(OC)c1OC`, the TGI in assay [1] is over 100 µM; in assay [2], over 100 µM; in assay [3], over 100 µM; in assay [4], over 100 µM; in assay [5], 76.9 µM; in assay [6], over 100 µM. For the same compound, the TGI was over 100 µM in assay [7], over 100 µM in [8], 25.1 µM in [9] and 32.9 µM in [10].

Take `OC1(c2ccc(Cl)cc2)c2ccccc2C2=NCc3ccccc3CN21` (stereo not given): the TGI in [1] is 28.9 µM; in assay [2], over 56.3 µM; in assay [3], 17.8 µM; in assay [4], 19.4 µM; in assay [5] it was 27.1 µM; in assay [6] it was 37.7 µM. Moreover, the TGI worked out at 20 µM in assay [7], 15.8 µM in assay [8], 24.3 µM in assay [9] and 27.7 µM in assay [10].
